Biological target: C-C chemokine receptor type 5 (Homo sapiens, UniProt P51681)
Test: Inhibition of RANTES binding to the human C-C chemokine receptor type 5 (CCR5)

Chain of C-C chemokine receptor type 5 (P51681 whole entry): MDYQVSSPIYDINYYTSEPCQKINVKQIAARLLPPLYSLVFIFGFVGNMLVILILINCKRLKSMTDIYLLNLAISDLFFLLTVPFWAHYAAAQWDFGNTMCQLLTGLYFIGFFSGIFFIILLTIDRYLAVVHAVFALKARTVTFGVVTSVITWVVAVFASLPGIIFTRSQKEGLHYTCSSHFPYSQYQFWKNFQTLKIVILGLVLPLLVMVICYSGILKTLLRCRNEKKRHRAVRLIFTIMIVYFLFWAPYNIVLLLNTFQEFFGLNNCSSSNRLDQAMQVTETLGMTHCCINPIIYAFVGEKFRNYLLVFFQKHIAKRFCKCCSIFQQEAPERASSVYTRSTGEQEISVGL

| Structure (SMILES) | Ki [nM] |
| --- | --- |
| CCO/N=C(/c1ccc(Br)cc1)C1CCN(C2(C)CCN(C(=O)c3cccnc3C)CC2)CC1 | 26 |
| CCO/N=C(/c1ccc(Br)cc1)C1CCN(C2(C)CCN(C(=O)c3c(C)cc(O)nc3C)CC2)CC1 | 7 |
| CCO/N=C(/c1ccc(Br)cc1)C1CCN(C2(C)CCN(C(=O)c3c(C)cc(C)nc3O)CC2)CC1 | 43 |
| Cc1cccc(C)c1C(=O)N1CCC(C)(N2CCC(Cc3ccc(S(C)(=O)=O)cc3)CC2)CC1 | 33 |
| CCO/N=C(/c1ccc(Br)cc1)C1CCN(C2(C)CCN(C(=O)c3c(C)ncnc3C)CC2)CC1 | 2.2 |
| Cc1cccc(O)c1C(=O)N1CCC(C)(N2CCN([C@@H](C)c3ccc(I)cc3)[C@@H](C)C2)CC1 | 7 |
| CCO/N=C(/c1ccc(Br)cc1)C1CCN(C2(C)CCN(C(=O)c3c(C)cc(-c4ccncc4)cc3C)CC2)CC1 | 0.1 |
| CCO/N=C(/c1ccc(Br)cc1)C1CCN(C2(C)CCN(C(=O)c3ccc[n+]([O-])c3)CC2)CC1 | > 30 |
| CCO/N=C(/c1ccc(C(F)(F)F)cc1)C1CCN(C2(C)CCN(C(=O)c3c(C)cc[n+]([O-])c3C)CC2)CC1 | 3.8 |
| CO/N=C(/c1ccc(S(C)(=O)=O)cc1)C1CCN(C2(C)CCN(C(=O)c3c(C)cc[n+]([O-])c3C)CC2)CC1 | 30 |
| CCO/N=C(/c1ccc(Br)cc1)C1CCN(C2(C)CCN(C(=O)c3c(Br)c[n+]([O-])cc3Br)CC2)CC1 | 0.7 |
| CCO/N=C(/c1ccc(Br)cc1)C1CCN(C2(C)CCN(C(=O)c3ccc[n+]([O-])c3C)CC2)CC1 | > 30 |
| Cc1cccc(C)c1C(=O)N1CCC(C)(N2CCC(Cc3ccc(OC(F)(F)F)cc3)CC2)CC1 | 55 |
| Cc1cccc(C)c1C(=O)N1CCC(C)(N2CCC(Cc3ccc(-c4ccccc4)cc3)CC2)CC1 | 360 |
| C[C@H]1CN(C2(C)CCN(C(=O)c3c(N)cccc3Cl)CC2)CCN1[C@@H](C)c1ccc(I)cc1 | 12 |
| CCO/N=C(/c1ccc(F)cc1)C1CCN(C2(C)CCN(C(=O)c3c(C)cc[n+]([O-])c3C)CC2)CC1 | 30 |
| C[C@H]1CN(C2CCN(C(=O)c3c(F)cccc3I)CC2)CCN1[C@@H](C)c1ccc(I)cc1 | 1300 |
| CCO/N=C(/c1ccc(Br)cc1)C1CCN(C2(C)CCN(C(=O)c3c(F)cccc3C(F)(F)F)CC2)CC1 | 3 |
| CCO/N=C(/c1ccc(S(C)(=O)=O)cc1)C1CCN(C2(C)CCN(C(=O)c3c(C)cc[n+]([O-])c3C)CC2)CC1 | 20 |
| CCO/N=C(/c1ccc(Cl)cc1)C1CCN(C2(C)CCN(C(=O)c3c(C)cc[n+]([O-])c3C)CC2)CC1 | 5.6 |
| Cc1cccc(C)c1C(=O)N1CCC(C)(N2CCC(Cc3ccc(C(F)(F)F)cc3)CC2)CC1 | 25 |
| Cc1cccc(C)c1C(=O)N1CCC(C)(N2CCN([C@@H](C)c3ccc(C(F)(F)F)cc3)[C@@H](C)C2)CC1 | 1 |
| CCO/N=C(/c1ccc(Br)cc1)C1CCN(C2(C)CCN(C(=O)c3c(C)ccc[n+]3[O-])CC2)CC1 | 16 |
| CCO/N=C(/c1ccc(Br)cc1)C1CCN(C2(C)CCN(C(=O)c3cccnc3)CC2)CC1 | > 30 |
| CCO/N=C(/c1ccc(Br)cc1)C1CCN(C2(C)CCN(C(=O)c3c(Cl)c[n+]([O-])cc3Cl)CC2)CC1 | 1.2 |

Results, then the compound that gave them:

| Ki [nM] | Structure (SMILES) |
| --- | --- |
| 110 | Cc1ccc(CC2CCN(C3(C)CCN(C(=O)c4c(C)cccc4C)CC3)CC2)cc1 |
| 2.3 | CCO/N=C(/c1ccc(Br)cc1)C1CCN(C2(C)CCN(C(=O)c3c(C)cncc3C)CC2)CC1 |
| 8 | C=C(c1ccc(Br)cc1)C1CCN(C2(C)CCN(C(=O)c3c(C)cccc3C)CC2)CC1 |
| 68 | Cc1cccc(C)c1C(=O)N1CCC(C)(N2CCC(Cc3ccc(Cl)cc3)CC2)CC1 |
| 2 | CO/N=C(/c1ccc(Br)cc1)C1CCN(C2(C)CCN(C(=O)c3c(C)cccc3C)CC2)CC1 |
| 1.1 | CO/N=C(/c1ccc(Br)cc1)C1CCN(C2(C)CCN(C(=O)c3c(C)ccnc3C)CC2)CC1 |
| 9 | Cc1cccc(C)c1C(=O)N1CCC(C)(N2CCC(/C(=N\OC(C)(C)C)c3ccc(Br)cc3)CC2)CC1 |
| 3.4 | CO/N=C(/c1ccc(Br)cc1)C1CCN(C2(C)CCN(C(=O)c3c(N)cccc3Cl)CC2)CC1 |
| 4.7 | CO/N=C(/c1ccc(Br)cc1)C1CCN(C2(C)CCN(C(=O)c3c(C)ncnc3C)CC2)CC1 |
| > 30 | Cc1cccc(C)c1C(=O)N1CCC(C)(N2CCC(/C(=N\Oc3ccccc3)c3ccc(Br)cc3)CC2)CC1 |
| 1.1 | CCO/N=C(/c1ccc(Br)cc1)C1CCN(C2(C)CCN(C(=O)c3c(C)ccnc3C)CC2)CC1 |
| 62 | Cc1cccc(C)c1C(=O)N1CCC(C)(N2CCC(C(C)c3ccc(Br)cc3)CC2)CC1 (configuration not stated) |
| 33 | CNC(=O)CO/N=C(/c1ccc(Br)cc1)C1CCN(C2(C)CCN(C(=O)c3c(C)cccc3C)CC2)CC1 |
| 2 | CCO/N=C(/c1ccc(Br)cc1)C1CCN(C2(C)CCN(C(=O)c3c(C)cccc3C)CC2)CC1 |
| 8.8 | CCO/N=C(/c1ccc(Br)cc1)C1CCN(C2(C)CCN(C(=O)c3c(C)c[n+]([O-])cc3C)CC2)CC1 |
| 19 | CO/N=C(/c1ccc(Br)cc1)C1CCN(C2(C)CCN(C(=O)c3c(C)cc[n+]([O-])c3C)CC2)CC1 |
| 33 | CCOC(=O)CO/N=C(/c1ccc(Br)cc1)C1CCN(C2(C)CCN(C(=O)c3c(C)cccc3C)CC2)CC1 |
| 33 | Cc1cccc(C)c1C(=O)N1CCC(C)(N2CCC(Cc3ccc(I)cc3)CC2)CC1 |
| 4.5 | CO/N=C(/c1ccc(Br)cc1)C1CCN(C2(C)CCN(C(=O)c3c(C)cccc3N)CC2)CC1 |
| 155 | COc1ccc(CC2CCN(C3(C)CCN(C(=O)c4c(C)cccc4C)CC3)CC2)cc1 |
| 4 | Cc1cccc(C)c1C(=O)N1CCC(C)(N2CCC(/C(=N\OC(C)C)c3ccc(Br)cc3)CC2)CC1 |
| > 30 | CCO/N=C(/c1ccc(Br)cc1)C1CCN(C2(C)CCN(C(=O)c3c(C)cc[nH]c3=O)CC2)CC1 |
